Source: publication PMC8510591, “A comprehensive study of the basic formulation of supersaturated self-nanoemulsifying drug delivery systems (SNEDDS) of albendazolum” (Drug Delivery, 2021)
Converted amounts (≈) assume the structure as drawn.

Columns and labels:
[1] = ABZ solubility in oils, surfactants and co-surfactants; format: physicochemical; details: 37 °C, 72 h
Experimental: The solubility tests were carried out on various oils, surfactants, and co-surfactants. The solubility determination method previously used by Meena et al. ([2012]) was employed. Excess ABZ was added to a volume of 1 g of the tested oil, surfactants, and co-surfactants, and placed in well-stoppered vials. The vials were agitated for 72 h (specified after determination of the equilibrium time beyond which the solubility is stable) at 37 ± 0.05 °C in a constant temperature water bath until equilibrium was attained. Subsequently, the vial's contents were centrifuged at 4000 rpm for 15 min using an ultracentrifuge to separate the insoluble ABZ. After being diluted with the solvent mixture (methanol and 1 N HCl with 7:3), the supernatants were filtered through a cellulose filter ([…]), and the ultraviolet absorbance of the filtrates was measured using the tested oil diluted with the solvent mixture as a blank to be 248 nm using a UV spectrophotometer. The materials used in the study included sunflower oil, Captex 300, PEG 300. PEG 400, soya oil, olive oil, crodamol oil, corn oil, Lauroglycol FCC, Cremophor EL, Solutol HS15, Labrafac lipophile WL1349, Capmul PG8, SPAN 20, Captex 355, Tween 80, Acrysol […], Labrasol, Cremophor RH40, Acrysol K140, Maisine, Sesame oil, Capmul MCM, Capryol PGMC, and propylene glycol. Results from each experiment were expressed as values in μg/mL.

[2] = ABZ saturated solubility in the selected SNEDDS pre-concentrate and in water; format: physicochemical
Experimental: Excess ABZ was added to keep the glass vials containing 1 g of selected optimized SNEDDS preconcentrate (composed of 5% oleic acid, 65% tween 20, 30% PEG) airtight. The suspension was incubated at 30 ± 0.5 °C in a water bath for 72 h to attain equilibrium (Kang et al., [2012]). The suspension was then centrifuged for 15 min at 4000 rpm, after three days using an ultracentrifuge to eliminate the undissolved ABZ. This was then followed by filtration of the supernatant with a 0.22 µm membrane filter. After the desired dilution with solvent (methanol and 1 N HCl with 7:3) was achieved, the ultraviolet absorbance of the filtrate was measured using a UV spectrophotometer at 248 nm. Blanks of plain SNEDDS not containing any drugs diluted in the same ratio were used to cancel interference from the SNEDDS preconcentrate. The experiment was repeated thrice, and the average drug saturated solubility in mg/mL of the selected SNEDDS was calculated.

SMILES: CCCSc1ccc2nc(NC(=O)OC)[nH]c2c1 [ABZ, Albendazolum]
- Total solubility ([1]; in Acrysol K140): 46.60 µg g^–1
- Total solubility ([1]; in Acrysol K150): 46.18 µg g^–1
- Total solubility ([1]; in Capmul MCM): 5.59 µg g^–1
- Total solubility ([1]; in Capmul PG8): 139.88 µg g^–1
- Total solubility ([1]; in Capryol PGMC): 179.48 µg g^–1
- Total solubility ([1]; in Captex 300): 40.23 µg g^–1
- Total solubility ([1]; in Captex 355): 99.37 µg g^–1
- Total solubility ([1]; in Cremophor EL): 179.76 µg g^–1
- Total solubility ([1]; in Cremophor RH40): 46.72 µg g^–1
- Total solubility ([1]; in Crodamol oil): 23.61 µg g^–1
- Total solubility ([1]; in Labrafac lipophile WL1349): 96.78 µg g^–1
- Total solubility ([1]; in Labrasol): 188.13 µg g^–1
- Total solubility ([1]; in Lauroglycol FCC): 186.05 µg g^–1
- Total solubility ([1]; in Maisine): 18.43 µg g^–1
- Total solubility ([1]; in Oleic acid): 734.20 µg g^–1
- Total solubility ([1]; in Olive oil): 0.79 µg g^–1
- Total solubility ([1]; in PEG 300): 340.45 µg g^–1
- Total solubility ([1]; in PEG 600): 498.90 µg g^–1
- Total solubility ([1]; in Propylene glycol): 194.47 µg g^–1
- Total solubility ([1]; in SPAN 20): 185.79 µg g^–1
- Total solubility ([1]; in Sesame oil): 3.73 µg g^–1
- Total solubility ([1]; in Solutol HS15): 193.44 µg g^–1
- Total solubility ([1]; in Soya oil): 3.62 µg g^–1
- Total solubility ([1]; in Sunflower oil): 0.43 µg g^–1
- Total solubility ([1]; in Tween 20): 210.45 µg g^–1
- Total solubility ([1]; in Tween 80): 172.19 µg g^–1
- average increase of solubility, SNEDDS pre-concentrate vs water ([2]; SNEDDS pre-concentrate relative to water): 89 fold
- solubility at 72 h ([2]; SNEDDS preconcentrate 5% oleic acid, 65% tween 20, 30% PEG, 30 °C, 72 h): 125 µg/mL (≈ 471 µM)
- solubility ([2]; water): 1.4 µg/mL (≈ 5.28 µM)
